Experimental findings from article PMC3433414, “Oral Administration of the Pimelic Diphenylamide HDAC Inhibitor HDACi 4b Is Unsuitable for Chronic Inhibition of HDAC Activity in the CNS In Vivo” (PLoS ONE, 2012) are described below.

For data set [1], the target named is T1, human recombinant HDAC8 (Homo sapiens, UniProt Q9BY41).
T1 construct: purified recombinant human full length HDAC1 (cat# 50051), HDAC2 (cat# 50052), HDAC3-NcoR2 (cat# 50003) and HDAC8 (cat# 50008); purchased BPS Bioscience (San Diego, CA) 50008
The data set can be described thus: Two-step fluorogenic deacetylase assay, recombinant HDAC8. The data set is classed as biochemical. As to conditions: up to 50 µM. From the text: To assess the biochemical and cellular potency of 4b and its conversion products/metabolites, we utilized the two-step fluorogenic assay which measures the HDAC-mediated catalytic conversion of synthetic acetylated lysine substrates. In brief, on deacetylation of the substrates by HDAC activity, a protease site is unmasked which allows subsequent trypsin-mediated cleavage and release of the highly flourescent AMC molecules in a subsequent step of the assay. The substrates used were Lys_Ac_AMC (Bachem I-1875) for HDAC3 and (Ac)Arg-Gly-Lys(Ac) (Bachem I-1925) for HDAC1 and HDAC2. […] However, the relatively labile and sterically more demanding trifluoracetyl group is readily hydrolyzed by the catalytically less avid Class IIa enzymes, allowing measurement of Class IIa activity using the 2-step fluorogenic assay. […]
For evaluation of the class selectivity of the compounds, we assessed inhibition against purified recombinant human full length HDAC1 (cat# 50051), HDAC2 (cat# 50052), HDAC3-NcoR2 (cat# 50003) and HDAC8 (cat# 50008): as representative of Class I activity; catalytic domain HDAC4(αα 648–1057), HDAC5 (αα 657–1123; cat # 50005), HDAC7 (αα 518-end; cat # 50007) and HDAC9 (αα 604–1066; cat # 50009) activity: representing all Class IIa activity; and full length HDAC6 (cat#50006): representing Class IIb activity. […]

A short description of data set [2]: Permeability in MDCK cells. It is filed as in vitro ADME. As to conditions: dog, pH 7.4. On the procedure: The MDR1-MDCKII and wild type MDCKII cell lines (obtained from SOLVO Biotechnology) were cultured in accordance with the guidelines provided by SOLVO Biotechnology. Both wild-type MDCK and MDR1-MDCK cells were seeded at a cell density of 2.3×10^5 cells/well into 24-well Transwell plates and cultured for three days to form monolayers. Test compound was loaded into the donor compartments of the Transwell plate (24-well) bearing MDR1-MDCK or wild type MDCK monolayers. Test compound was added to either the apical or basolateral chambers of the Transwell plate assembly at a concentration of 10 µM in Hanks’ Balanced Salt Solution containing 25 mM HEPES (pH 7.4). Lucifer Yellow was added to the apical buffer in all wells and its permeation monitored to assess integrity of the cell layer. […] Concentrations of compound in the samples were measured by LC-MS/MS. Concentrations of LY in the samples were measured using a fluorescence plate reader. The apparent permeability (Papp) values of test compound were determined for both the apical to basal (A>B) and basal to apical (B>A) permeation and the efflux ratio (B>A: A>B) determined in both the wild type MDCK and MDR1-MDCK cells. Apparent permeability (Papp) values were calculated from the relationship: [drawing 5] […]

Structures are written as SMILES.

One may read the Papp A→B as the apparent permeability from the apical to the basolateral side of a cell layer. Low values mean slow passage, high ones fast passage.

T1 sequence (Q9BY41 whole entry): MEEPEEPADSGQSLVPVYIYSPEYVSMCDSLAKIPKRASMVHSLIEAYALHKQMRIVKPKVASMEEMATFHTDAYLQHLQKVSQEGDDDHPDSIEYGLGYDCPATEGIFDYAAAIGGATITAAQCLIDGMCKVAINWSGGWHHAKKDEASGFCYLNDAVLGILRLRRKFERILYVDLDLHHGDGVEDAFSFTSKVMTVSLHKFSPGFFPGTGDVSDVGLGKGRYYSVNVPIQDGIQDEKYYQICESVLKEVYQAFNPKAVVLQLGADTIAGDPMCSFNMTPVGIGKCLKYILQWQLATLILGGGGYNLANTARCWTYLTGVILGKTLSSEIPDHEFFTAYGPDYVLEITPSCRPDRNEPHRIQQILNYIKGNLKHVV

In the case of `Nc1ccccc1NC(=O)CCCCCC(=O)Nc1ccccc1` [Compound 4b], the “activity against HDAC8” value in data set [1] is given as “No activity”. The compound also gave a Papp A→B at 1 h, 10 µM in data set [2] of 10.8 ×10⁻⁶ cm/s.
